Source: patent publication US20240166652A1, “MODULATORS OF THE INTEGRATED STRESS PATHWAY” (Calico Life Sciences LLC, priority 2017, published 2024)

System: ATF4 luciferase reporter in HEK293T cells
Assay: ATF4-Luc assay (ATF4 luciferase reporter, tunicamycin-treated HEK293T cells)
Assay type: cell-based, human
Conditions: Homo sapiens, HEK-293T; HEK293T cells carrying the ATF4 luciferase reporter, 1 μg/mL tunicamycin, 7 hours

`O=C(COc1ccc(F)cc1)NC12CCC(NC(=O)COc3ccc(F)c(F)c3)(CC1)[C@@H](O)C2` [Compound 617, 2-(3,4-difluorophenoxy)-N-{(2S)-4-[2-(4-fluorophenoxy)acetamido]-2-hydroxybicyclo[2.2.2]octan-1-yl}acetamide] was tested, and the EC50 was < 10 nM.
`O=C(COc1ccc(Cl)cc1)NC12CCC(NC(=O)COc3ccc(F)c(F)c3)(CC1)[C@@H](O)C2` [Compound 618, 2-(4-chlorophenoxy)-N-{(3S)-4-[2-(3,4-difluorophenoxy)acetamido]-3-hydroxybicyclo[2.2.2]octan-1-yl}acetamide] was tested, and the EC50 was < 10 nM.
`O=C(COc1ccc(F)cc1)NC12CCC(NC(=O)COc3ccc(Cl)c(F)c3)(CC1)[C@@H](O)C2` [Compound 619, 2-(4-chloro-3-fluorophenoxy)-N-{(2S)-4-[2-(4-fluorophenoxy)acetamido]-2-hydroxybicyclo[2.2.2]octan-1-yl}acetamide] was tested, and the EC50 was < 10 nM.
`COC(=O)c1ncc(OCC(=O)NC23CCC(NC(=O)COc4ccc(Cl)c(F)c4)(CC2)[C@@H](O)C3)cn1` [Compound 622, methyl 5-[2-({(3S)-4-[2-(4-chloro-3-fluorophenoxy)acetamido]-3-hydroxybicyclo[2.2.2]octan-1-yl}amino)-2-oxoethoxy]pyrimidine-2-carboxylate] gave an EC50 of 500 to 2000 nM.
`N#Cc1ncc(OCC(=O)NC23CCC(NC(=O)COc4ccc(Cl)c(F)c4)(CC2)[C@@H](O)C3)cn1` [Compound 623, 2-(4-chloro-3-fluorophenoxy)-N-[(2S)-4-{2-[(2-cyanopyrimidin-5-yl)oxy]acetamido}-2-hydroxybicyclo[2.2.2]octan-1-yl]acetamide] showed an EC50 of 10 to 50 nM.
With `CCOc1ncc(OCC(=O)NC23CCC(NC(=O)COc4ccc(Cl)c(F)c4)(CC2)[C@@H](O)C3)cn1` [Compound 624, 2-(4-chloro-3-fluorophenoxy)-N-[(2S)-4-{2-[(2-ethoxypyrimidin-5-yl)oxy]acetamido}-2-hydroxybicyclo[2.2.2]octan-1-yl]acetamide] the EC50 was < 10 nM.
In the case of `COc1ncc(OCC(=O)NC23CCC(NC(=O)COc4cnc(OC)nc4)(CC2)[C@@H](O)C3)cn1` [Compound 626, N,N′-[(2S)-2-hydroxybicyclo[2.2.2]octane-1,4-diyl]bis{2-[(2-methoxypyrimidin-5-yl)oxy]acetamide}], the EC50 is reported as > 2000 nM.
`O=C(COc1cnc(C(F)(F)F)nc1)NC12CCC(NC(=O)COc3ccc(Cl)c(F)c3)(CC1)[C@@H](O)C2` [Compound 627, 2-(4-chloro-3-fluorophenoxy)-N-[(2S)-2-hydroxy-4-(2-{[2-(trifluoromethyl)pyrimidin-5-yl]oxy}acetamido)bicyclo[2.2.2]octan-1-yl]acetamide] was tested, and the EC50 was < 10 nM.
`O=C(COc1cnc(OCC(F)(F)F)nc1)NC12CCC(NC(=O)COc3ccc(Cl)c(F)c3)(CC1)[C@@H](O)C2` [Compound 629, 2-(4-chloro-3-fluorophenoxy)-N-[(2S)-2-hydroxy-4-(2-{[2-(2,2,2-trifluoroethoxy)pyrimidin-5-yl]oxy}acetamido)bicyclo[2.2.2]octan-1-yl]acetamide] was tested, and the EC50 was 50 to 250 nM.
In the case of `O=C(COc1ncc(C(F)(F)F)cn1)NC12CCC(NC(=O)COc3ccc(Cl)c(F)c3)(CC1)[C@@H](O)C2` [Compound 630, 2-(4-chloro-3-fluorophenoxy)-N-[(2S)-2-hydroxy-4-(2-{[5-(trifluoromethyl)pyrimidin-2-yl]oxy}acetamido)bicyclo[2.2.2]octan-1-yl]acetamide], the EC50 is reported as < 10 nM.
In the case of `COc1ncc(OCC(=O)NC23CCC(NC(=O)COc4ccc(F)cc4)(CC2)[C@@H](O)C3)cn1` [Compound 631, 2-(4-fluorophenoxy)-N-[(2S)-2-hydroxy-4-{2-[(2-methoxypyrimidin-5-yl)oxy]acetamido}bicyclo[2.2.2]octan-1-yl]acetamide], the EC50 is reported as 50 to 250 nM.
With `COc1ncc(OCC(=O)NC23CCC(NC(=O)COc4ccc5c(c4)OC(F)(F)O5)(CC2)[C@@H](O)C3)cn1` [Compound 632, 2-[(2,2-difluoro-2H-1,3-benzodioxol-5-yl)oxy]-N-[(2S)-2-hydroxy-4-{2-[(2-methoxypyrimidin-5-yl)oxy]acetamido}bicyclo[2.2.2]octan-1-yl]acetamide] the EC50 was 10 to 50 nM.
For `COc1ncc(OCC(=O)NC23CCC(NC(=O)COc4ccc(C(F)(F)F)c(F)c4)(CC2)[C@@H](O)C3)cn1` [Compound 633, 2-[3-fluoro-4-(trifluoromethyl)phenoxy]-N-[(2S)-2-hydroxy-4-{2-[(2-methoxypyrimidin-5-yl)oxy]acetamido}bicyclo[2.2.2]octan-1-yl]acetamide], the EC50 was 10 to 50 nM.
For `COc1ncc(OCC(=O)NC23CCC(NC(=O)COc4ccc(F)c(F)c4)(CC2)[C@@H](O)C3)cn1` [Compound 634, 2-(3,4-difluorophenoxy)-N-[(2S)-2-hydroxy-4-{2-[(2-methoxypyrimidin-5-yl)oxy]acetamido}bicyclo[2.2.2]octan-1-yl]acetamide], the EC50 was 50 to 250 nM.
`COc1ncc(OCC(=O)NC23CCC(NC(=O)COc4ccc(Cl)cc4)(CC2)[C@@H](O)C3)cn1` [Compound 635, 2-(4-chlorophenoxy)-N-[(2S)-2-hydroxy-4-{2-[(2-methoxypyrimidin-5-yl)oxy]acetamido}bicyclo[2.2.2]octan-1-yl]acetamide] showed an EC50 of 10 to 50 nM.
`O=C(COc1cnc(OC2CCC2)nc1)NC12CCC(NC(=O)COc3ccc(Cl)c(F)c3)(CC1)[C@@H](O)C2` [Compound 636, 2-(4-chloro-3-fluorophenoxy)-N-[(2S)-4-(2-{[2-(cyclobutyloxy)pyrimidin-5-yl]oxy}acetamido)-2-hydroxybicyclo[2.2.2]octan-1-yl]acetamide] gave an EC50 of 250 to 500 nM.
With `COc1ncc(OCC(=O)NC23CCC(NC(=O)COc4ccc(Cl)c(F)c4)(CC2)[C@@H](O)C3)cn1` [Compound 637, 2-(4-chloro-3-fluorophenoxy)-N-[(2S)-2-hydroxy-4-{2-[(2-methoxypyrimidin-5-yl)oxy]acetamido}bicyclo[2.2.2]octan-1-yl]acetamide] the EC50 was < 10 nM.
Molecule `O=C(COc1ccc(Cl)c(F)c1)NC12CCC(NC(=O)COc3ccon3)(CC1)[C@@H](O)C2` [Compound 639, 2-(4-chloro-3-fluorophenoxy)-N-[(3S)-3-hydroxy-4-{2-[(1,2-oxazol-3-yl)oxy]acetamido}bicyclo[2.2.2]octan-1-yl]acetamide] has an EC50 of 50 to 250 nM.
With `O=C(COc1ccc(Cl)c(F)c1)NC12CCC(NC(=O)COc3ccc(Cl)cn3)(CC1)[C@@H](O)C2` [Compound 640, 2-(4-chloro-3-fluorophenoxy)-N-[(3S)-4-{2-[(5-chloropyridin-2-yl)oxy]acetamido}-3-hydroxybicyclo[2.2.2]octan-1-yl]acetamide] the EC50 was < 10 nM.
In the case of `CC(C)(CNC12CC(NC(=O)COc3ccc(Cl)c(F)c3)(C1)C2)Oc1ccc(Cl)cc1` [Compound 641, 2-(4-chloro-3-fluorophenoxy)-N-(3-{[2-(4-chlorophenoxy)-2-methylpropyl]amino}bicyclo[1.1.1]pentan-1-yl)acetamide], the EC50 is reported as > 2000 nM.
`O=C(COc1cnc(C(=O)O)nc1)NC12CCC(NC(=O)COc3ccc(Cl)c(F)c3)(CC1)[C@@H](O)C2` [Compound 642, 5-[2-({(3S)-4-[2-(4-chloro-3-fluorophenoxy)acetamido]-3-hydroxybicyclo[2.2.2]octan-1-yl}amino)-2-oxoethoxy]pyrimidine-2-carboxylic Acid] was tested, and the EC50 was > 2000 nM.
For `O=C(COc1ccc(Cl)c(F)c1)NC12CCC(NC(=O)COc3ccc(Cl)c(F)c3)(CC1)C(CCO)C2` (stereo not drawn) [Compound 643, N,N′-[2-(2-hydroxyethyl)bicyclo[2.2.2]octane-1,4-diyl]bis[2-(4-chloro-3-fluorophenoxy)acetamide]], the EC50 was < 10 nM.
For `O=C(COc1ccc(Cl)c(F)c1)NC12CCC(NC(=O)COc3ccc(Cl)c(F)c3)(CC1)C(O)(CO)C2` (stereo not drawn) [Compound 644, N,N′-[2-hydroxy-2-(hydroxymethyl)bicyclo[2.2.2]octane-1,4-diyl]bis[2-(4-chloro-3-fluorophenoxy)acetamide]], the EC50 was < 10 nM.
For `O=C(COc1ccn2nccc2c1)NC12CCC(NC(=O)COc3ccc(Cl)c(F)c3)(CC1)[C@@H](O)C2` [Compound 645, 2-(4-chloro-3-fluorophenoxy)-N-[(2S)-2-hydroxy-4-{2-[(pyrazolo[1,5-a]pyridin-5-yl)oxy]acetamido}bicyclo[2.2.2]octan-1-yl]acetamide], the EC50 was < 10 nM.
For `O=C(Cn1cc(F)cnc1=O)NC12CCC(NC(=O)COc3ccc(Cl)c(F)c3)(CC1)[C@@H](O)C2` [Compound 646, 2-(4-chloro-3-fluorophenoxy)-N-{(2S)-4-[2-(5-fluoro-2-oxopyrimidin-1(2H)-yl)acetamido]-2-hydroxybicyclo[2.2.2]octan-1-yl}acetamide], the EC50 was 500 to 2000 nM.
`O=C(COc1ccc(Cl)c(F)c1)NC12CCC(NCc3nc4cc(F)ccc4[nH]3)(CC1)C[C@@H]2O` [Compound 647, 2-(4-chloro-3-fluorophenoxy)-N-[(2S)-4-{[(5-fluoro-1H-benzimidazol-2-yl)methyl]amino}-2-hydroxybicyclo[2.2.2]octan-1-yl]acetamide] showed an EC50 of 50 to 250 nM.
Work on `O=C(COc1ccc(Cl)c(F)c1)NC12CCC(NCc3nc4cc(F)c(F)cc4[nH]3)(CC1)C[C@@H]2O` [Compound 648, 2-(4-chloro-3-fluorophenoxy)-N-[(2S)-4-{[(5,6-difluoro-1H-benzimidazol-2-yl)methyl]amino}-2-hydroxybicyclo[2.2.2]octan-1-yl]acetamide] yielded an EC50 of 10 to 50 nM.
`O=C(COc1ccc(Cl)c(F)c1)NC12CCC(NC(=O)CCOc3ccc(Cl)c(F)c3)(CC1)[C@@H](O)C2` [Compound 650, 3-(4-chloro-3-fluorophenoxy)-N-{(2S)-4-[2-(4-chloro-3-fluorophenoxy)acetamido]-2-hydroxybicyclo[2.2.2]octan-1-yl}propanamide] was tested, and the EC50 was < 10 nM.
In the case of `COc1ccc(OCC(=O)NC23CCC(NC(=O)COc4ccc(Cl)c(F)c4)(CC2)[C@@H](O)C3)cn1` [Compound 651, 2-(4-chloro-3-fluorophenoxy)-N-[(2S)-2-hydroxy-4-{2-[(6-methoxypyridin-3-yl)oxy]acetamido}bicyclo[2.2.2]octan-1-yl]acetamide], the EC50 is reported as < 10 nM.
Molecule `O=C(COc1ccc(Cl)c(F)c1)N[C@H]1C(=O)C[C@@]2(NC(=O)COc3ccc(Cl)c(F)c3)CC[C@@H]1C2` [Compound 652, N,N′-[(1R,4R,5R)-3-oxobicyclo[3.2.1]octane-1,4-diyl]bis[2-(4-chloro-3-fluorophenoxy)acetamide]] has an EC50 of 10 to 50 nM.
